Columns and labels:
Non-transformed hybrids = experiment: Field tolerance to quizalofop and 2,4-D: non-transformed hybrids; type: in vivo, corn; conditions: for % Injury 3 WAA (0-100 scale): 140 g ae/ha
Text: Two field trials were established at field stations in Hawaii and Indiana. […] The hybrid Hi-II×5XH571 is of the same parentage as the AAD1 (v3) event lines. The hybrid Croplan 585SR is a sethoxydim resistant line.
The experimental design was a split-plot with four replications. The main plot was herbicide treatment and the sub-plot was AAD1 (v3) event or comparison hybrid. Plots were one row by 3.7 meters with approximately twenty-five seeds planted in each row. For AAD1 events, seeds from a different lineage within the event were planted in each replicate.
Glufosinate at 560 g ai/ha was applied to AAD1 (v3) plots at the V2 stage to eliminate non-transformed plants. […] Treatments were applied using backpack broadcast boom equipment delivering 187 L/ha carrier volume at 130-200 kpa pressure.
Quizalofop treated plots were visually assessed for crop injury at one and three weeks after application (WAA) using a 0-100% scale, where 0 equals no injury and 100 equals complete death.

[1] = test system: homozygous T4 lines of Arabidopsis; experiment: 2,4-D injury and AAD1 (v3) expression in homozygous T4 Arabidopsis lines; type: in vivo, Arabidopsis thaliana; conditions: 800 g ae/ha and above; 14 DAT
Method: An experiment was designed to examine if the level of AAD1 (v3) expression in Arabidopsis varies at different growth stages. A high-tolerance, homozygous, AAD1 (v3) T4 line (id=PAAD1.01.345.163) was grown in greenhouse. […] Two leaves, the 3rd leaf from the top and the 5th leaf from the bottom, were harvested from 5 plants, both treated and untreated, and analyzed by ELISA and Western Blotting (as described in Example 11) experiments at 4, 10, 14, 20 and 25 DAT. […] The protein levels accumulated in older plants with some significant protein degradation at the later time points.
These plants also expressed high level of AAD1 (v3), from 0.1 to 0.25% of (FIG. 9B). On the contrary, the low tolerance line expressed less than 0.1% of AAD1 (v3) in TSP and suffered observable injury.

[2] = test system: AAD1 (v3) T1 tobacco (events 721(2)-013.010 and 721(3)-008.005); experiment: Segregating AAD1 T1 tobacco response to phenoxy auxin herbicides; type: in vivo, Nicotiana tabacum; conditions: rates below 1× field rates (560 g ae/ha); either event
Text: Two AAD1 (v3) tobacco lines (event 721(2)-013.010 and 721(3)-008.005) were chosen from the T0 generation. The T1 seed was stratified, and sown into selection trays much like that of Arabidopsis (Example 6.4), followed by selective removal of untransformed nulls in this segregating population with 280 g ai/ha glufosinate (PAT selection). Survivors were transferred to individual 3-inch pots in the greenhouse. […] Improved consistency of response is anticipated in T1 plants not having come directly from tissue culture. These plants were compared against wildtype KY 160 tobacco. All plants were sprayed with the use of a track sprayer set at 187 L/ha. […] All applications were formulated in 200 mM Hepes buffer (pH 7.5). Each treatment was replicated 4 times. Plants were evaluated at 3 and 14 days after treatment. Plants were assigned injury rating with respect to stunting, chlorosis, and necrosis. The T1 generation is segregating, so some variable response is expected due to difference in zygosity. (Table 28).

[3] = test system: T4 Arabidopsis homozygous for AAD1 (v3) (line AAD1.01.315.076); experiment: Foliar-applied auxinic herbicides on homozygous T4 AAD1 (v3) Arabidopsis, % injury 14 DAT; type: in vivo, Arabidopsis thaliana; conditions: AAD1.01.315.076.T4 homozygous AAD1 plants
Method in brief: (§1)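 Homozygous T4 AAD1 (v3) Arabidopsis (line AAD1.01.315.076) and a PAT/Cry1F transformed control were grown in pots and track-sprayed foliarly at 187 L/ha with herbicides formulated in 200 mM Hepes pH 7.5. Injury was rated 14 days after treatment, with 3-4 replicates averaged over two experiments.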

[4] = test system: transformed-control line containing PAT and Cry1F; experiment: Foliar-applied auxinic herbicides on control (PAT/Cry1F, wildtype) Arabidopsis, % injury 14 DAT; type: in vivo, Arabidopsis thaliana; conditions: PatCry1f - Control
Method in brief: as §1

[5] = test system: AAD1 (v3)-transformed T0 corn events; experiment: Tolerance of T0 AAD1 (v3) corn plants (pDAB3404) to postemergence AOPP herbicides; type: in vivo
[6] = test system: Non-transformed Hi-II callused suspension tissue; experiment: Dose response of non-transformed maize callus tissue; type: cell-based; conditions: haloxyfop 400 nM

SMILES: O=C(O)COc1ccc(Cl)cc1Cl [2,4-D, 2,4-dichlorophenoxyacetic acid]
- epinastic leaning in non-transformed hybrids (Non-transformed hybrids; 1120 g ae/ha, 2 DAA): 11-33%
- brace root deformation rating (0-10 scale) (Non-transformed hybrids; 1120 g ae/ha, non-transformed hybrids, 3-4 WAA): 9
- response of control plants [1]: died
- injury of T1 AAD1 (v3) tobacco [2]: No injury was observed

SMILES: Nc1c(Cl)c(F)nc(OCC(=O)O)c1Cl [Fluroxypyr]
- Ave % Injury 14DAT ([3]; 50 g ae/ha foliar): 48%
- Ave % Injury 14DAT ([3]; 200 g ae/ha foliar): 75%
- Ave % Injury 14DAT ([3]; 800 g ae/ha foliar): 88%
- Ave % Injury 14DAT ([3]; 3200 g ae/ha foliar): 95%
- Ave % Injury 14DAT ([4]; 50 g ae/ha foliar): 76%
- Ave % Injury 14DAT ([4]; 200 g ae/ha foliar): 85%
- Ave % Injury 14DAT ([4]; 800 g ae/ha foliar): 85%
- Ave % Injury 14DAT ([4]; 3200 g ae/ha foliar): 95%

SMILES: CC(Oc1ccc(Oc2ncc(C(F)(F)F)cc2Cl)cc1)C(=O)O (stereo not drawn) [haloxyfop]
- % Injury 14 DAT ([5]; 8.8 g ae/ha, construct 3404 event 001 clone 016): 0%
- % Injury 14 DAT ([5]; 8.8 g ae/ha, construct 3404 event 022 clone 019): 0%
- % Injury 14 DAT ([5]; 8.8 g ae/ha, construct 3404 event 038 clone 016): 0%
- % Injury 14 DAT ([5]; 17.5 g ae/ha, construct 3404 event 022 clone 016): 0%
- % Injury 14 DAT ([5]; 17.5 g ae/ha, construct 3404 event 022 clone 020): 0%
- non-transgenic corn callus tissue growth [6]: inhibited

SMILES: C[C@@H](Oc1ccc(Oc2cnc3cc(Cl)ccc3n2)cc1)C(=O)O [quizalofop]
- injury of non-transformed hybrids (Non-transformed hybrids; 70 g ae/ha, field): 80-100%
- % Injury 3 WAA (0-100 scale) (Non-transformed hybrids; HI, CROPLAN 585SR): 96%
- % Injury 3 WAA (0-100 scale) (Non-transformed hybrids; HI, DK493): 100%
- % Injury 3 WAA (0-100 scale) (Non-transformed hybrids; HI, HI-II X 5XH571): 100%
- % Injury 3 WAA (0-100 scale) (Non-transformed hybrids; IN, CROPLAN 585SR): 80%
- % Injury 3 WAA (0-100 scale) (Non-transformed hybrids; IN, DK493): 100%
- % Injury 3 WAA (0-100 scale) (Non-transformed hybrids; IN, HI-II X 5XH571): 100%
- injury of most AAD1 (v3) T0 lines ([5]; 8× field dose (64× lethal dose), 14 DAT): no visible injury
- % Injury 14 DAT ([5]; 8.8 g ae/ha, construct 3404 event 001 clone 017): 0%
- % Injury 14 DAT ([5]; 8.8 g ae/ha, construct 3404 event 001 clone 019): 30%
- % Injury 14 DAT ([5]; 8.8 g ae/ha, construct 3404 event 022 clone 021): 0%
- % Injury 14 DAT ([5]; 8.8 g ae/ha, construct 3404 event 038 clone 017): 0%
- % Injury 14 DAT ([5]; 17.5 g ae/ha, construct 3404 event 022 clone 017): 0%
- % Injury 14 DAT ([5]; 35 g ae/ha, construct 3404 event 001 clone 020): 0%
- % Injury 14 DAT ([5]; 35 g ae/ha, construct 3404 event 017 clone 018): 0%
- % Injury 14 DAT ([5]; 35 g ae/ha, construct 3404 event 017 clone 019): 0%
- % Injury 14 DAT ([5]; 35 g ae/ha, construct 3404 event 022 clone 022): 0%
- % Injury 14 DAT ([5]; 35 g ae/ha, construct 3404 event 033 clone 012): 0%
- % Injury 14 DAT ([5]; 35 g ae/ha, construct 3404 event 038 clone 019): 70%
- % Injury 14 DAT ([5]; 35 g ae/ha, construct 3404 event 038 clone 020): 80%
- % Injury 14 DAT ([5]; 70 g ae/ha, construct 3404 event 017 clone 020): 0%
- % Injury 14 DAT ([5]; 70 g ae/ha, construct 3404 event 017 clone 021): 0%
- % Injury 14 DAT ([5]; 70 g ae/ha, construct 3404 event 022 clone 023): 0%
- % Injury 14 DAT ([5]; 70 g ae/ha, construct 3404 event 033 clone 013): 0%
- % Injury 14 DAT ([5]; 70 g ae/ha, construct 3404 event 033 clone 014): 0%
- % Injury 14 DAT ([5]; 70 g ae/ha, construct 3404 event 038 clone 021): 80%
- % Injury 14 DAT ([5]; 70 g ae/ha, construct 3404 event 038 clone 022): 80%
- % Injury 14 DAT ([5]; 140 g ae/ha, construct 3404 event 017 clone 022): 0%
- % Injury 14 DAT ([5]; 140 g ae/ha, construct 3404 event 017 clone 023): 30%
- % Injury 14 DAT ([5]; 140 g ae/ha, construct 3404 event 033 clone 015): 0%
- % Injury 14 DAT ([5]; 280 g ae/ha, construct 3404 event 017 clone 024): 30%
- % Injury 14 DAT ([5]; 280 g ae/ha, construct 3404 event 017 clone 025): 20%
- % Injury 14 DAT ([5]; 280 g ae/ha, construct 3404 event 033 clone 016): 0%
